In PMC6153936, “Bisarylureas Based on 1H-Pyrazolo[3,4-d]pyrimidine Scaffold as Novel Pan-RAF Inhibitors with Potent Anti-Proliferative Activities: Structure-Based Design, Synthesis, Biological Evaluation and Molecular Modelling Studies” (Molecules : A Journal of Synthetic Chemistry and Natural …, 2017):

Key:
[1] = target: T1, BRAF^V600E (Homo sapiens, UniProt P15056, V600E); assay: BRAF^V600E kinase inhibition, Z'-LYTE; format: biochemical; conditions: for inhibition at 0.1 µM: 100 nM; for inhibition at 0.1 µM / inhibition at 1 µM: average of two independent experiments; for inhibition at 1 µM: 1000 nM; for IC50: ten concentrations 1000 to 0.0508 nM, two independent experiments
T1 construct: purchased Life Technologies
T1 sequence (P15056 whole entry V600E): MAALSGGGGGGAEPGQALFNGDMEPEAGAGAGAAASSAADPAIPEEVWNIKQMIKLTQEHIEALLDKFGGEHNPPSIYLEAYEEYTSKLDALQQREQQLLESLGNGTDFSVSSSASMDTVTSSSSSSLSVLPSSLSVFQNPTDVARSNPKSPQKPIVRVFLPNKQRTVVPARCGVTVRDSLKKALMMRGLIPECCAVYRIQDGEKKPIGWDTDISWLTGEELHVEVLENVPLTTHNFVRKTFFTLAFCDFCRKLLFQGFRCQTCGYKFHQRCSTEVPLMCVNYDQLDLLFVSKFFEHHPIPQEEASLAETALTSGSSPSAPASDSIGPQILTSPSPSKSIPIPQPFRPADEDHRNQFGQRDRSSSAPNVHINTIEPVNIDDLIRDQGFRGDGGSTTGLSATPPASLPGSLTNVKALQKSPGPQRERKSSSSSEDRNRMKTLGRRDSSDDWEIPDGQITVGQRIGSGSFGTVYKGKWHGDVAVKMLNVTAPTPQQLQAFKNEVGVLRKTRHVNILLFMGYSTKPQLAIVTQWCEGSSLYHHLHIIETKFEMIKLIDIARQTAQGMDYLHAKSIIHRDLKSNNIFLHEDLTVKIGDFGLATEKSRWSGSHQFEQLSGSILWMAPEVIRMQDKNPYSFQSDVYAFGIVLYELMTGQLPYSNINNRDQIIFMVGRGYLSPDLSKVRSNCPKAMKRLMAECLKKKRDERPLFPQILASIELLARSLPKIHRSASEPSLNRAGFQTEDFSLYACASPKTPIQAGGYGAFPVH
Protocol: The experiments were performed according to the instructions of the manufacturer, and single point concentration testing with two independent data points (n = 2). […] The IC50 values were calculated from the inhibition curves from two separate experiments.

[2] = test system: A375; assay: MTT anti-proliferative assay, A375; format: cell-based; conditions: Homo sapiens, A-375, 48 h
Protocol: (§1) All cell lines were purchased from Cell Bank of China Science Academy (Shanghai, China). All chemicals and solvents were purchased from Sigma-Aldrich (St. Louis, MO, USA) or Gibco (Gibco BRL, Grand Island, NY, USA). The PC-3 and A375 cell lines was maintained in Dulbecco's modified eagle (DEME) medium supplement with 10% fetal bovine serum (FBS) and 1% penicillin–streptomycin. The others were cultured in Roswell Park Memorial Institute (RPMI) 1640 medium supplement with 10% fetal bovine serum (FBS) and 1% penicillin–streptomycin. Approximately 5 × 10^3 cells, suspended in medium, were plated into each well of a 96-well plate and grown at 37 °C in a humidified atmosphere with 5% CO2 for 24 h. The following day, various concentrations of tested compounds were added to the culture medium and incubated for 48 h. Fresh MTT was added to each well at the terminal concentration of 5 mg/mL in phosphate buffered saline (PBS), and incubated with cells at 37 °C for 4 h. The formazan crystals in each well were dissolved in 150 μL DMSO, and the absorbency at 570 nm was measured with an enzyme-linked immunosorbent assay plate reader. All of the compounds were tested three times in each of the cell lines.

[3] = test system: HT-29; assay: MTT anti-proliferative assay, HT-29; format: cell-based; conditions: Homo sapiens, 48 h
Protocol: as §1

[4] = test system: PC-3; assay: MTT anti-proliferative assay, PC-3; format: cell-based, human; conditions: for IC50: Homo sapiens, PC-3, MTT, 48 h; for fold improvement in activity compared to Sorafenib, PC-3: PC-3, IC50 ratio to Sorafenib
Protocol: as §1

[5] = test system: A549; assay: MTT anti-proliferative assay, A549; format: cell-based, human; conditions: for IC50: Homo sapiens, A549, MTT, 48 h
Protocol: as §1

[6] = MTT cytotoxic assay, normal cell line MDCK; conditions: dog, MDCK cells (normal cell line)
Protocol: as §1

SMILES	inhibition at 0.1 µM [1] [%]	inhibition at 1 µM [1] [%]	IC50 [1] [µM]	IC50 [2] [µM]	IC50 [3] [µM]	IC50 [4] [µM]	IC50 [5] [µM]	melting point [°C]	IC50 at 48 h [6] [µM]	fold improvement in activity compared to Sorafenib, PC-3 [4] [fold]	fold improvement compared to Sorafenib, A549 ([5]; A549, IC50 ratio to Sorafenib) [fold]
CCc1cccc(NC(=O)Nc2ccc(Oc3ncnc4[nH]ncc34)cc2)c1 [Compound 1l, 1-(4-((1H-Pyrazolo[3,4-d]pyrimidin-4-yl)oxy)phenyl)-3-(3-ethylphenyl)urea]	60	69	0.0513	75.6	71.2	> 80	19.9	219.5 to 221.5	> 80		
O=C(Nc1ccc(Oc2ncnc3[nH]ncc23)cc1)Nc1cc(C(F)(F)F)ccc1F [Compound 1n, 1-(4-((1H-Pyrazolo[3,4-d]pyrimidin-4-yl)oxy)phenyl)-3-(2-fluoro-5-(trifluoromethyl)phenyl)urea]	30	87		5.39	27.8	40.3	32.1		23.1		
O=C(Nc1ccc(Oc2ncnc3[nH]ncc23)cc1)Nc1cccc(Br)c1 [Compound 1s, 1-(4-((1H-Pyrazolo[3,4-d]pyrimidin-4-yl)oxy)phenyl)-3-(3-bromophenyl)urea]	10	71		65.4	> 80	5.52	> 80	234.5 to 237	> 80		
Cc1ccc([N+](=O)[O-])c(NC(=O)Nc2ccc(Oc3ncnc4[nH]ncc34)cc2)c1 [Compound 1r, 1-(4-((1H-Pyrazolo[3,4-d]pyrimidin-4-yl)oxy)phenyl)-3-(5-methyl-2-nitrophenyl)urea]		22		> 80	> 80	> 80	> 80	359.7 to 360.2	> 80		
Cc1cccc(NC(=O)Nc2ccc(Oc3ncnc4[nH]ncc34)cc2)c1 [Compound 1b, 1-(4-((1H-Pyrazolo[3,4-d]pyrimidin-4-yl)oxy)phenyl)-3-(m-tolyl)urea]		46		> 80	> 80	> 80	75.6	227.4 to 230	> 80		
O=C(Nc1ccc(Oc2ncnc3[nH]ncc23)cc1)Nc1cccc(Cl)c1 [Compound 1g, 1-(4-((1H-Pyrazolo[3,4-d]pyrimidin-4-yl)oxy)phenyl)-3-(3-chlorophenyl)urea]		54		> 80	> 80	> 80	70.1	234.8 to 236	> 80		
O=C(Nc1ccc(Oc2ncnc3[nH]ncc23)cc1)Nc1cc(C(F)(F)F)ccc1Cl [Compound 1i, 1-(4-((1H-Pyrazolo[3,4-d]pyrimidin-4-yl)oxy)phenyl)-3-(2-chloro-5-(trifluoromethyl)phenyl)urea]	52	83		26.9	62.4	1.12	60.8	239.2 to 240.3	> 80	12	
CSc1cccc(NC(=O)Nc2ccc(Oc3ncnc4[nH]ncc34)cc2)c1 [Compound 1o, 1-(4-((1H-Pyrazolo[3,4-d]pyrimidin-4-yl)oxy)phenyl)-3-(3-(methylthio)phenyl)urea]	29	69		> 80	> 80	5.34	30	227.3 to 228.4	> 80		
N#Cc1cccc(NC(=O)Nc2ccc(Oc3ncnc4[nH]ncc34)cc2)c1 [Compound 1p, 1-(4-((1H-Pyrazolo[3,4-d]pyrimidin-4-yl)oxy)phenyl)-3-(3-cyanophenyl)urea]		48		61.8	39.4	30.9	59.5	235.2 to 237.4	> 80		
COC(=O)c1cccc(NC(=O)Nc2ccc(Oc3ncnc4[nH]ncc34)cc2)c1 [Compound 1q, Methyl-3-(3-(4-((1H-pyrazolo[3,4-d]pyrimidin-4-yl)oxy)phenyl)ureido)benzoate]		32		> 80	> 80	22.5	> 80	217.3 to 220.1	> 80		
O=C(Nc1ccc(Oc2ncnc3[nH]ncc23)cc1)Nc1cc(F)cc(C(F)(F)F)c1 [Compound 1j, 1-(4-((1H-Pyrazolo[3,4-d]pyrimidin-4-yl)oxy)phenyl)-3-(3-fluoro-5-(trifluoromethyl)phenyl)urea]	37	67		30.4	50.7	46	60.3	249.2 to 250.6	> 80		
Cn1ncc2c(Oc3ccc(NC(=O)Nc4cccc(Cl)c4)cc3)ncnc21 [Compound 1u, 1-(3-Chlorophenyl)-3-(4-((1-methyl-1H-pyrazolo[3,4-d]pyrimidin-4-yl)oxy)phenyl)urea]	61	93	0.0381	13.2	> 80	68.9	> 80	309.8 to 312	> 80		
O=C(Nc1ccc(Oc2ncnc3[nH]ncc23)cc1)Nc1cccc([N+](=O)[O-])c1 [Compound 1m, 1-(4-((1H-Pyrazolo[3,4-d]pyrimidin-4-yl)oxy)phenyl)-3-(3-nitrophenyl)urea]	3	62		64	31.7	23.4	> 80	229.2 to 231.4	> 80		
O=C(Nc1ccc(Cl)cc1)Nc1ccc(Oc2ncnc3[nH]ncc23)cc1 [Compound 1d, 1-(4-((1H-Pyrazolo[3,4-d]pyrimidin-4-yl)oxy)phenyl)-3-(4-chlorophenyl)urea]		51		78.8	> 80	18.4	> 80		> 80		
CNC(=O)c1cc(Oc2ccc(NC(=O)Nc3ccc(Cl)c(C(F)(F)F)c3)cc2)ccn1 [Sorafenib, reference compound]				6.81	8.12	13.8	13.7		14.7		
Cc1ccc(Cl)c(NC(=O)Nc2ccc(Oc3ncnc4[nH]ncc34)cc2)c1 [Compound 1f, 1-(4-((1H-Pyrazolo[3,4-d]pyrimidin-4-yl)oxy)phenyl)-3-(2-chloro-5-methylphenyl)urea]		37		62.3	61.7	1.12	5.24	230.2 to 232.4	> 80	12	2
Cc1ccc(NC(=O)Nc2ccc(Oc3ncnc4[nH]ncc34)cc2)cc1C [Compound 1t, 1-(4-((1H-Pyrazolo[3,4-d]pyrimidin-4-yl)oxy)phenyl)-3-(3,4-dimethylphenyl)urea]	28	89		75.2	> 80	> 80	> 80	249.9 to 250.6	> 80		
